{"source": "ChEMBL document CHEMBL1201862", "about": "“PubChem BioAssay data set” (2004)", "key": {"[1]": {"target": "T1, DNA repair and recombination protein RAD54-like (Homo sapiens, UniProt Q92698)", "T1 sequence (Q92698 whole entry)": "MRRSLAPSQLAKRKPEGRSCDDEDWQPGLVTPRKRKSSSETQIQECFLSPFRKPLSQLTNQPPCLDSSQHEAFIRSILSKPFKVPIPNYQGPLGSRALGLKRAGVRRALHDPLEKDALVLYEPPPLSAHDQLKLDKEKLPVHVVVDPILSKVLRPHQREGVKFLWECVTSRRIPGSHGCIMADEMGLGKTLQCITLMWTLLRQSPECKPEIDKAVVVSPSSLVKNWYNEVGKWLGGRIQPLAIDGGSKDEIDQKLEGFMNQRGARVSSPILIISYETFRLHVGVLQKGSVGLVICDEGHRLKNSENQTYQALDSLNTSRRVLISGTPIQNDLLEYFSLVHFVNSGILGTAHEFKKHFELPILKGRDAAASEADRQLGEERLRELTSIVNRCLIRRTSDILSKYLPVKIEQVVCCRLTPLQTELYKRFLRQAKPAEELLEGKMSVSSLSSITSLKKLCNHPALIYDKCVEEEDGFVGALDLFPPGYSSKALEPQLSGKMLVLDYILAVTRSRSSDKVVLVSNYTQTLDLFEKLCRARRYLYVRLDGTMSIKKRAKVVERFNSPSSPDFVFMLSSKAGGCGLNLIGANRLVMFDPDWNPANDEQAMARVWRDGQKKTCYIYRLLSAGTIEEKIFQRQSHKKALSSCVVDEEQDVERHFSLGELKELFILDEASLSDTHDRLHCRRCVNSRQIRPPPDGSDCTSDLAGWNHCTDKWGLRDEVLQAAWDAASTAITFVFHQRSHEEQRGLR", "test": "RAD54 Holliday junction migration blockers – biochemical, fluorescence, cherry-picked samples, dose series, confirmation (AID 651657)", "type": "functional"}, "[2]": {"target": "T2, Low molecular weight phosphotyrosine protein phosphatase (Homo sapiens, UniProt P24666)", "T2 sequence (P24666 whole entry)": "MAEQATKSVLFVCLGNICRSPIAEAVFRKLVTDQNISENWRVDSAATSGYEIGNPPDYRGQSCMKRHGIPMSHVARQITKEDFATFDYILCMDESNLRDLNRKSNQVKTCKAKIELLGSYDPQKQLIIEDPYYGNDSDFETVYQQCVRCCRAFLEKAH", "type": "functional", "conditions": "read-out: IC50_Mean"}, "[3]": {"target": "T2, Low molecular weight phosphotyrosine protein phosphatase", "test": "inhibition of human LMPTP enzyme activity – biochemical, absorbance, pNPP substrate, LMPTP-A isoform, set 2, orthogonal assay, dose response (AID 743308)", "type": "functional"}, "[4]": {"test": "acridine orange displacement from DNA – biochemical, fluorescence polarization, cherry-pick, artefact control for RAD54 inhibitor project, dose response (AID 651673)", "type": "functional"}, "[5]": {"test": "Counterscreen for activators of the function of SWI/SNF related, matrix associated, actin dependent regulator of chromatin, subfamily a, member 2 (SMARCA2, BRM): Luminescence-based cell-based high throughput dose response assay to identify non-selective compounds using the VP16 reporter assay.", "type": "functional"}, "[6]": {"target": "T3, DNA repair protein RAD52 homolog (Homo sapiens, UniProt P43351)", "T3 sequence (P43351 whole entry)": "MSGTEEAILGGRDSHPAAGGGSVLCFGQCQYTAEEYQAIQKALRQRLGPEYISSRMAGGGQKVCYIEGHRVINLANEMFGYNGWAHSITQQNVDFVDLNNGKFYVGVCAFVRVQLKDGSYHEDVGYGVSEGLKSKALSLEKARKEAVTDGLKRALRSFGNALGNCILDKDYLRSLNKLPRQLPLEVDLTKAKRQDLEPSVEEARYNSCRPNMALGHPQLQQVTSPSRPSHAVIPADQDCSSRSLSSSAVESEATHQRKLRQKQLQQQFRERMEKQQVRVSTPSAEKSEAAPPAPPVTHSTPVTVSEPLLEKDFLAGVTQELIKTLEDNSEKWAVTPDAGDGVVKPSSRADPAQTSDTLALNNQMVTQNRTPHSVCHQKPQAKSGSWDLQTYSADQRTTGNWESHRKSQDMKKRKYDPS", "type": "functional, biochemical"}, "[7]": {"target": "T2, Low molecular weight phosphotyrosine protein phosphatase", "test": "inhibition of LMPTP-A enzymatic activity – biochemical, OMFP substrate, fluorescence intensity, set 2, dose response (AID 743307)", "type": "functional"}, "[8]": {"target": "SWI/SNF-related matrix-associated actin-dependent regulator of chromatin subfamily A member 2 (Homo sapiens, UniProt P51531)", "sequence (P51531 whole entry)": "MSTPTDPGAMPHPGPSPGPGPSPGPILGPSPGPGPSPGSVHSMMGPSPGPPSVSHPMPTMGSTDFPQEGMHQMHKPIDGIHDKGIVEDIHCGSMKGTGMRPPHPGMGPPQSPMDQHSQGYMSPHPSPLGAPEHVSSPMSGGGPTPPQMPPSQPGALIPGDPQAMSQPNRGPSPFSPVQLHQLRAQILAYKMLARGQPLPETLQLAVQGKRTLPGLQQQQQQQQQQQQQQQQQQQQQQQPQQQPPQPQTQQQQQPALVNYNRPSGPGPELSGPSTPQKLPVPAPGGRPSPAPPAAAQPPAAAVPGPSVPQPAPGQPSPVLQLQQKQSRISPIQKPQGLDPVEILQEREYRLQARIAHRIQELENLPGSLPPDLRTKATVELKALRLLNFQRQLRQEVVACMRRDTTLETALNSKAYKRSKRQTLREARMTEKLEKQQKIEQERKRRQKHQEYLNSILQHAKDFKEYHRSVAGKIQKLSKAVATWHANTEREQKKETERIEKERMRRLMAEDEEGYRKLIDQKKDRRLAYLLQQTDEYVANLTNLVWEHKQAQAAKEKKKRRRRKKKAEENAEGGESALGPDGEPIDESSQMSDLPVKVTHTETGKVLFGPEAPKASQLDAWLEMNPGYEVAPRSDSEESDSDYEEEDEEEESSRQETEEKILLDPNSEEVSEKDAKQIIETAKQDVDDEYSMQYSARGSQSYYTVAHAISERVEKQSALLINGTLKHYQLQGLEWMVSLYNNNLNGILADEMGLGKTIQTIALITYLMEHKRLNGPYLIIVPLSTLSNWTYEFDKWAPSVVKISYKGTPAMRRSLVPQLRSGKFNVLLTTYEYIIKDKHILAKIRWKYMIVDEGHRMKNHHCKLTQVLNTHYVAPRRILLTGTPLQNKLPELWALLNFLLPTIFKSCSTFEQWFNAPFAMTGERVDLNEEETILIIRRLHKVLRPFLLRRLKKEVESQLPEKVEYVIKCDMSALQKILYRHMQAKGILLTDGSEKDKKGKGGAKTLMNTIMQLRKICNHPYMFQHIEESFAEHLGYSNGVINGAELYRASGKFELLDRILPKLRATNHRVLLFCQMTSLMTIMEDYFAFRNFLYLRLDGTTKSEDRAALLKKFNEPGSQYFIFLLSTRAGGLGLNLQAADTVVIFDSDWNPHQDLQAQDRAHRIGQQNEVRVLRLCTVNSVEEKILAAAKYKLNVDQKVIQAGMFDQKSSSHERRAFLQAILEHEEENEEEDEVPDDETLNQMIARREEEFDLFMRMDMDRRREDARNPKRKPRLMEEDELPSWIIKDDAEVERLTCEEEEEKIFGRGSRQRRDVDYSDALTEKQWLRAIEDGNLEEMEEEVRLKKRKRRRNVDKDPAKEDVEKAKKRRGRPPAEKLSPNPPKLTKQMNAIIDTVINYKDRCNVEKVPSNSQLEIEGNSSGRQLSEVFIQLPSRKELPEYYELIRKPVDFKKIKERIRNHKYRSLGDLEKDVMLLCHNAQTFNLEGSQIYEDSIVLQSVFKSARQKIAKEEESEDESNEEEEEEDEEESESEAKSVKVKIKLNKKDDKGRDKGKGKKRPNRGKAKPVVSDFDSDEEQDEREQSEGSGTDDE", "test": "Luminescence-based cell-based high throughput dose response assay to identify activators of the function of SWI/SNF related, matrix associated, actin dependent regulator of chromatin, subfamily a, member 2 (SMARCA2, BRM).", "type": "functional"}, "[9]": {"target": "T2, Low molecular weight phosphotyrosine protein phosphatase", "type": "functional", "conditions": "read-out: IC50_Mean", "remark": "listed apart in the source"}, "[10]": {"test": "Dd2 parasite growth inhibition in erythrocytes – SYBR Green, dry powder samples, set 9, dose response (AID 1159568)", "type": "functional, cell-based"}, "[11]": {"target": "Paired box protein Pax-8 (Homo sapiens, UniProt Q06710)", "sequence (Q06710 whole entry)": "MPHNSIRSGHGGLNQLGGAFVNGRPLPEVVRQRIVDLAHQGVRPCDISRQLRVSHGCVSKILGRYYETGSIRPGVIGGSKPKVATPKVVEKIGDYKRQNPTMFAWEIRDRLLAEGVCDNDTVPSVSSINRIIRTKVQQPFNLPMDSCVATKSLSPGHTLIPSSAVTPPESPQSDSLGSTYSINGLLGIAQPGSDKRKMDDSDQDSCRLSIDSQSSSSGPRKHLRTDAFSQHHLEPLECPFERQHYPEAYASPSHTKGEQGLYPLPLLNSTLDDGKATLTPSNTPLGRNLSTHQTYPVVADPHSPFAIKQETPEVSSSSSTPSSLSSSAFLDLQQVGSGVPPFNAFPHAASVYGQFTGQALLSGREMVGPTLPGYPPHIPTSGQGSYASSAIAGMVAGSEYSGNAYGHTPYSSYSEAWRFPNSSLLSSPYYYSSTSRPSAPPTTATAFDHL", "test": "PAX8 transcriptional activity inhibition in RMG-I – RMG-I cells, luciferase, cherry-pick, dose response (AID 687027);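 further: luciferase reporter driven by Pax8 target thyroperoxidase promoter measured by SteadyGlo luminescence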", "type": "functional, cell-based"}, "[12]": {"test": "IGROV1 cell killing – plate reader, dry powder samples, PAX8 inhibitor project, dose response (AID 743043)", "type": "functional, cell-based", "conditions": "IGROV-1"}, "[13]": {"test": "Potency on glucagon-like peptide 1 release, dose-response in NCI-H716 cell line, half maximal inhibitory concentration (AID 1117344)", "type": "functional, cell-based"}, "[14]": {"test": "glucagon-like peptide-1 release potency in STC-1, concentration-response, half-maximal inhibitory concentration in the STC-1 line (AID 1117345)", "type": "functional, cell-based"}, "[15]": {"target": "Metabotropic glutamate receptor 7 (Homo sapiens, UniProt Q14831)", "sequence (Q14831 whole entry)": "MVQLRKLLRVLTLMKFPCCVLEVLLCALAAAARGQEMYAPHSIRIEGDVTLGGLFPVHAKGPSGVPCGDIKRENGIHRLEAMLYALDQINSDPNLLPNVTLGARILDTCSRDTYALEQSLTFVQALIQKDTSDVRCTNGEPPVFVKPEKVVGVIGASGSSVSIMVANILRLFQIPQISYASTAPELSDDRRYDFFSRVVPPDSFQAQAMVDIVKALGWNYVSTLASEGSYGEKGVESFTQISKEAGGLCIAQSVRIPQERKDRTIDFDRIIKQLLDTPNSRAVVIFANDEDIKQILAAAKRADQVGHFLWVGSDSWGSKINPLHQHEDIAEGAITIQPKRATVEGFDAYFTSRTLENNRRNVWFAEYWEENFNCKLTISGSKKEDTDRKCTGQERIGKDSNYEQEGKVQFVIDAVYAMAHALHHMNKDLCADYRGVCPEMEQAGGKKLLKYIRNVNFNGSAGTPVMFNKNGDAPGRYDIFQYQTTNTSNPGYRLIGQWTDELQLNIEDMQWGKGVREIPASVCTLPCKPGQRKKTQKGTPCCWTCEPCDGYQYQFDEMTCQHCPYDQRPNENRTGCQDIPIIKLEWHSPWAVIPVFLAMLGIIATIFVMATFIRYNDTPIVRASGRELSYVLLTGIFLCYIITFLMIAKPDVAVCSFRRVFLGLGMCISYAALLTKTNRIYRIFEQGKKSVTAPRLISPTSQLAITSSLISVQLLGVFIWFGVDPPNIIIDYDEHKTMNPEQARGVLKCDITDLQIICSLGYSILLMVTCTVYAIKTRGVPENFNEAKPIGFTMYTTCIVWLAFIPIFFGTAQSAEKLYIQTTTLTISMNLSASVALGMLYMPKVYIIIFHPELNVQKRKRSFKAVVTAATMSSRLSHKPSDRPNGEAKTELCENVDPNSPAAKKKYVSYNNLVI", "test": "potentiation of glutamate EC20 at mGlu7 – cell-based, calcium mobilization, Galpha15, dose response (AID 743384)", "type": "functional"}, "[16]": {"test": "CellTiter-Glo luminescence survival assay, SW480 colon tumor line, concentration-response curve, half-maximal inhibitory concentration (AID 1117338)", "type": "functional"}, "[17]": {"test": "rise of 2N DNA cells, HeLa – IC50, dose response (AID 1117349)", "type": "functional, cell-based"}, "[18]": {"test": "RKO cell viability reduction, dose response, CellTiter-Glo luminescence (AID 1117322)", "type": "functional"}, "[19]": {"test": "cytotoxicity toward Colo320 cells – cell-based, CellTiter-Glo luminescence, IC50, dose response (AID 1117334)", "type": "functional", "conditions": "COLO 320"}, "[20]": {"test": "SNU-C1 cell viability reduction, dose response, CellTiter-Glo luminescence (AID 1117323)", "type": "functional, cell-based"}, "[21]": {"test": "cytotoxicity toward HCT116 cells – cell-based, CellTiter-Glo luminescence, IC50, dose response (AID 1117332)", "type": "functional", "conditions": "HCT-116"}, "[22]": {"test": "rise of 4N DNA cells, HeLa – IC50, dose response (AID 1117351)", "type": "functional, cell-based"}, "[23]": {"test": "HCT116 cell viability decrease, GSK3B pretreatment – CellTiter-Glo, IC50, dose response (AID 1117339)", "type": "functional", "conditions": "HCT-116"}, "[24]": {"test": "cytotoxicity toward HT-29 cells – cell-based, CellTiter-Glo luminescence, IC50, dose response (AID 1117330)", "type": "functional"}, "[25]": {"test": "Reduced DLD-1 viability, concentration-response, CellTiter-Glo luminescence (AID 1117352)", "type": "functional"}, "[26]": {"test": "cells", "type": "functional, cell-based", "conditions": "INS-1E"}, "[27]": {"test": "IC50 of insulin release inhibition, rat insulinoma INS-1E line, 5 mM glucose, cell-based (AID 1117331)", "type": "functional"}}, "note": "Where a name gives a salt, the structure may show the parent alone. Active and inactive are the calls of the source."}
{"smiles": "c1ccc(-c2cc(NCCN3CCCCC3)c3ccccc3n2)cc1", "values": [{"measurement": "AC50", "setting": "[1]", "result": "4.86 µM (active)"}, {"measurement": "IC50", "setting": "[2]", "result": "5.8 µM (active)"}, {"measurement": "IC50", "setting": "[3]", "result": "8.37 µM (active)"}, {"measurement": "AC50", "setting": "[4]", "result": "58.8 µM (active)"}, {"measurement": "EC50", "setting": "[5]", "result": "> 91.2 µM (inactive)"}, {"measurement": "AC50", "setting": "[6]", "result": "< 3.63 µM (active)"}, {"measurement": "IC50", "setting": "[7]", "result": "3.7 µM (active)"}, {"measurement": "EC50", "setting": "[8]", "result": "10.9 µM (inactive)"}, {"measurement": "IC50", "setting": "[9]", "result": "3.49 µM (active)"}]}
{"smiles": "C[C@@H]1CN([C@@H](C)CO)C(=O)Cc2cc(NC(=O)C3CCCCC3)ccc2O[C@H]1CN(C)Cc1ccc(Cl)c(Cl)c1", "values": [{"measurement": "AC50", "setting": "[10]", "result": "2.76 µM (active)"}, {"measurement": "AC50", "setting": "[11]", "result": "5.39 µM (active)"}, {"measurement": "AC50", "setting": "[12]", "result": "28.6 µM (active)"}]}
{"smiles": "Cc1cc(OCCOCC[N+](C)(C)Cc2ccccc2)ccc1C(C)(C)CC(C)(C)C", "values": [{"measurement": "IC50", "setting": "[13]", "result": "12 µM (inactive)"}, {"measurement": "IC50", "setting": "[14]", "result": "> 40 µM (inactive)"}]}
{"smiles": "CC(=O)Nc1ccc(SCC(=O)c2cc(C)n(-c3nc(C)cs3)c2C)cc1", "values": [{"measurement": "EC50", "setting": "[15]", "result": "10 µM (active)"}]}
{"smiles": "CCCCC(CC)CNC(=N)NC(=N)NCCCCCCNC(=N)NC(=N)NCC(CC)CCCC", "note": "(configuration not stated) [ALEXIDINE DIHYDROCHLORIDE]", "values": [{"measurement": "IC50", "setting": "[16]", "result": "0.333 µM (active)"}, {"measurement": "IC50", "setting": "[17]", "result": "> 10 µM (inactive)"}, {"measurement": "IC50", "setting": "[18]", "result": "0.223 µM (active)"}, {"measurement": "IC50", "setting": "[19]", "result": "0.0041 µM (active)"}, {"measurement": "IC50", "setting": "[20]", "result": "0.0941 µM (active)"}, {"measurement": "IC50", "setting": "[21]", "result": "0.71 µM (active)"}, {"measurement": "IC50", "setting": "[22]", "result": "> 10 µM (inactive)"}, {"measurement": "IC50", "setting": "[23]", "result": "0.396 µM (active)"}, {"measurement": "IC50", "setting": "[24]", "result": "0.0302 µM (active)"}, {"measurement": "IC50", "setting": "[25]", "result": "0.0197 µM (active)"}]}
{"smiles": "CC(C)[C@H]1CC[C@H](C(=O)N[C@H](Cc2ccccc2)C(=O)O)CC1", "note": "[NATEGLINIDE]", "values": [{"measurement": "IC50", "setting": "[26]", "result": "> 33.3 µM (inactive)"}, {"measurement": "IC50", "setting": "[27]", "result": "7.07 µM (inactive)"}]}
